Source: ChEMBL document CHEMBL5500396, “Discovery, Multiparametric Optimization, and Solid-State Driven Identification of CHF-6550, a Novel Soft Dual Pharmacology Muscarinic Antagonist and β2 Agonist (MABA) for the Inhaled Treatment of Respiratory Diseases” (J Med Chem, 2024)

Tests used:
[1] = Half-life in guinea pig at 3 nmol/kg, IT(Intratracheal) administered as dry powder; conditions: in vivo, inhaled or intranasal
[2] = target: Sodium channel protein type 5 subunit alpha (Homo sapiens, UniProt Q14524)
Description: Inhibition of human Nav1.5

in vitro [3] = conditions: human, plasma
Description: Stability in human plasma assessed as half-life at 5 uM incubated for 120 mins by LC-MS/MS analysis

[4] = target: Voltage-gated inwardly rectifying potassium channel KCNH2 (Homo sapiens, UniProt Q12809)
Description: Inhibition of human ERG by patch clamp assay

Trachea = assay: Inhibition of carbachol-induced smooth muscle contraction in male albino Dunkin-Hartley guinea pig trachea; conditions: Cavia porcellus, read-out: pIC50 (converted)
[5] = target: Beta-2 adrenergic receptor (Cavia porcellus, UniProt Q8K4Z4); assay: Agonist activity at beta2 adrenoceptor in male albino Dunkin-Hartley guinea pig trachea assessed as inhibition of histamine induced smooth muscle contraction
Cavia porcellus [6] = assay: Inhibition of histamine induced bronchoconstriction in male albino Dunkin-Hartley guinea pig model at 0.3 nmol/kg, IT(Intratracheal) preadministered with compound followed by histamine addition at 5 to 30 mins and measured 16 hrs post compound treatment relative to control; conditions: read-out: INH
in vitro [7] = conditions: human, hepatocytes
Description: Metabolic stability in human hepatocytes assessed as clearance measured per 10^6 cells at 1 uM incubated for 90 mins by LC-MS/MS analysis

Cavia porcellus [8] = assay: Inhibition of acetylcholine induced bronchoconstriction in male albino Dunkin-Hartley guinea pig model at 0.3 nmol/kg, IT(Intratracheal) preadministered with compound followed by acetylcholine addition at 5 to 30 mins and measured 1 hrs post compound treatment relative to control; conditions: read-out: INH
Cavia porcellus [9] = assay: Bronchodilating effect in acetylcholine induced male albino Dunkin-Hartley guinea pig model assessed as maximal efficacy at 0.3 nmol/kg, IT(Intratracheal) administered with compound followed by acetylcholine addition at 5 to 30 mins and measured 1 hrs post compound treatment relative to control
[10] = target: Voltage-dependent L-type calcium channel subunit alpha-1C (Homo sapiens, UniProt Q13936)
Description: Inhibition of human Cav1.2

in vitro [11] = conditions: rat, plasma
Description: Stability in rat plasma assessed as half-life at 5 uM incubated for 120 mins by LC-MS/MS analysis

in vivo [12] = conditions: rat, iv, 125 ug
Description: Clearance in rat at 125 ug, iv measured after 1 hrs by LC-MS analysis

Cavia porcellus [13] = species on record: Cavia porcellus; assay: animal or person; conditions: albino Dunkin-Hartley, 1 h, read-out: INH
Description: Inhibition of acetylcholine induced bronchoconstriction in male albino Dunkin-Hartley guinea pig model at 0.3 nmol/kg, IT(Intratracheal) preadministered with compound followed by acetylcholine addition at 5 to 30 mins in presence of ICI-118551 and measured 1 hrs post compound treatment relative to control

Cavia porcellus [14] = species on record: Cavia porcellus; assay: animal or person; conditions: albino Dunkin-Hartley, 1 h
Description: Bronchodilating effect in acetylcholine induced male albino Dunkin-Hartley guinea pig model assessed as maximal efficacy at 0.3 nmol/kg, IT(Intratracheal) administered with compound followed by acetylcholine addition at 5 to 30 mins in presence of ICI-118551 and measured 1 hrs post compound treatment relative to control

in vivo [15] = conditions: male, Dunkin-Hartley, guinea pig, inhaled or intranasal, 1 mM
Description: Toxicity in male albino Dunkin-Hartley guinea pig model assessed as inhibition of carbachol-induced salivation at 1 mM, preadministered with compound for 10 mins via aerosol followed by anesthesia treatment 3 hrs post compound addition and further treated with carbachol and measured every 5 mins for 4 times

in vitro [16] = conditions: guinea pig, plasma
Description: Stability in guinea pig plasma assessed as half-life at 5 uM incubated for 120 mins by LC-MS/MS analysis

in vitro [17] = conditions: rat, hepatocytes
Description: Metabolic stability in rat hepatocytes assessed as clearance measured per 10^6 cells at 1 uM incubated for 90 mins by LC-MS/MS analysis

[18] = Stability in guinea pig lung S9 fraction at 1 uM incubated for 60 mins by LC-MS/MS analysis
in vivo [19] = conditions: male, Dunkin-Hartley, guinea pig, inhaled or intranasal, 3 mM
Description: Toxicity in male albino Dunkin-Hartley guinea pig model assessed as inhibition of carbachol-induced salivation at 3 mM, preadministered with compound for 10 mins via aerosol followed by anesthesia treatment 3 hrs post compound addition and further treated with carbachol and measured every 5 mins for 4 times

Cavia porcellus [20] = species on record: Cavia porcellus; assay: animal or person; conditions: albino Dunkin-Hartley, 16 h, read-out: INH
Description: Inhibition of acetylcholine induced bronchoconstriction in male albino Dunkin-Hartley guinea pig model at 0.3 nmol/kg, IT(Intratracheal) preadministered with compound followed by acetylcholine addition at 5 to 30 mins in presence of ICI-118551 and measured 16 hrs post compound treatment relative to control

in vivo [21] = conditions: rat, iv, 125 ug; remark: listed apart in the source
Description: Volume of distribution at steady state in rat at 125 ug, iv measured after 1 hrs by LC-MS analysis

Cavia porcellus [22] = assay: Inhibition of histamine induced bronchoconstriction in male albino Dunkin-Hartley guinea pig model at 0.3 nmol/kg, IT(Intratracheal) preadministered with compound followed by histamine addition at 5 to 30 mins and measured 1 hrs post compound treatment relative to control; conditions: read-out: INH
[23] = target: Beta-2 adrenergic receptor (Homo sapiens, UniProt P07550)
Description: Displacement of [125I]-Cyanopindolol from human beta2 adrenoceptor assessed as inhibition constant incubated for 1 hrs by Microbeta scintillation counter

Cavia porcellus [24] = assay: Inhibition of acetylcholine induced bronchoconstriction in male albino Dunkin-Hartley guinea pig model at 0.3 nmol/kg, IT(Intratracheal) preadministered with compound followed by acetylcholine addition at 5 to 30 mins and measured 16 hrs post compound treatment relative to control; conditions: read-out: INH
Cavia porcellus [25] = assay: Bronchodilating effect in histamine induced male albino Dunkin-Hartley guinea pig model assessed as maximal efficacy at 0.3 nmol/kg, IT(Intratracheal) administered with compound followed by histamine addition at 5 to 30 mins and measured 1 hrs post compound treatment relative to control
in vivo [26] = conditions: male, Dunkin-Hartley, guinea pig, inhaled or intranasal, 0.3 mM
Description: Toxicity in male albino Dunkin-Hartley guinea pig model assessed as inhibition of carbachol-induced salivation at 0.3 mM, preadministered with compound for 10 mins via aerosol followed by anesthesia treatment 3 hrs post compound addition and further treated with carbachol and measured every 5 mins for 4 times

Chain of Voltage-gated inwardly rectifying potassium channel KCNH2 (Q12809 whole entry): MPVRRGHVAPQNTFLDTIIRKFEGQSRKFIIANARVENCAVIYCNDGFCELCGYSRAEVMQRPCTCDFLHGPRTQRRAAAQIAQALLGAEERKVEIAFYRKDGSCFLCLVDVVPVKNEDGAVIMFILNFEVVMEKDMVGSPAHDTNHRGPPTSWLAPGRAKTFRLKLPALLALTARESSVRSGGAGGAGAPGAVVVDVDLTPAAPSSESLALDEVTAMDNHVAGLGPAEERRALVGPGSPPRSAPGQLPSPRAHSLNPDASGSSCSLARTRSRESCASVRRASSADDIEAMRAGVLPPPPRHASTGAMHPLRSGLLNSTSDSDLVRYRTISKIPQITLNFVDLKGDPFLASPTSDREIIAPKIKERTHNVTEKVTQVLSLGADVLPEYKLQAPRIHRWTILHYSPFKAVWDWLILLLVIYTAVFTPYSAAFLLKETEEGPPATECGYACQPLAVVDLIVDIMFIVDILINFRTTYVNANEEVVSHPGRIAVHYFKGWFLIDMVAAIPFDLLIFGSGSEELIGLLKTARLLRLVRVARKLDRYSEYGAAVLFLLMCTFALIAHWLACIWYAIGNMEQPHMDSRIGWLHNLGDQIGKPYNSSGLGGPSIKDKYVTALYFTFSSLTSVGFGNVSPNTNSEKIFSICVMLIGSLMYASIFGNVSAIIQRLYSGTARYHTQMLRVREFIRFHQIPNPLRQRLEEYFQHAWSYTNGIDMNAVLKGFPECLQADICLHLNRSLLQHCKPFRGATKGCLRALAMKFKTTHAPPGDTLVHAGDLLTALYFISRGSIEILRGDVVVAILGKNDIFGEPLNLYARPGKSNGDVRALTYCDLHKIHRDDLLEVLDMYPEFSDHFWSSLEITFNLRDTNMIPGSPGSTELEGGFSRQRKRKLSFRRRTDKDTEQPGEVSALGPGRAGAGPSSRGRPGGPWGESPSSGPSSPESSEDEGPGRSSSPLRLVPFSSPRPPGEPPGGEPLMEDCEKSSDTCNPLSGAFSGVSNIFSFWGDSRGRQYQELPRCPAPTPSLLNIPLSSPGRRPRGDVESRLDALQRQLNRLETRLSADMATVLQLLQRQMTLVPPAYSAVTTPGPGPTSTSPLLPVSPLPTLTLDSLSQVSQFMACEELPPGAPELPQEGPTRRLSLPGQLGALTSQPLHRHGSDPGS
Chain of Beta-2 adrenergic receptor (Homo sapiens, UniProt P07550) (P07550 whole entry): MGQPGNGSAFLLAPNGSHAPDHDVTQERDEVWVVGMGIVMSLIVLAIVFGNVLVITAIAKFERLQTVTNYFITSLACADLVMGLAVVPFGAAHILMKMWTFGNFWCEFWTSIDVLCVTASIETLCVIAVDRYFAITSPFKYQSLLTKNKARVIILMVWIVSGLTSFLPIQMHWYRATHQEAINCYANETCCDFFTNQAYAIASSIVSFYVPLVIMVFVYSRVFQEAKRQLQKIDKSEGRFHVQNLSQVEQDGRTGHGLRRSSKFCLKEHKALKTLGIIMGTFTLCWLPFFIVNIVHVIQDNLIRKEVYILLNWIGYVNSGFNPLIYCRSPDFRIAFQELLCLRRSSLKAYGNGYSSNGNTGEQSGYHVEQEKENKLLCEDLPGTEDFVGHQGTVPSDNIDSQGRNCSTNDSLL
Chain of Beta-2 adrenergic receptor (Cavia porcellus, UniProt Q8K4Z4) (Q8K4Z4 whole entry): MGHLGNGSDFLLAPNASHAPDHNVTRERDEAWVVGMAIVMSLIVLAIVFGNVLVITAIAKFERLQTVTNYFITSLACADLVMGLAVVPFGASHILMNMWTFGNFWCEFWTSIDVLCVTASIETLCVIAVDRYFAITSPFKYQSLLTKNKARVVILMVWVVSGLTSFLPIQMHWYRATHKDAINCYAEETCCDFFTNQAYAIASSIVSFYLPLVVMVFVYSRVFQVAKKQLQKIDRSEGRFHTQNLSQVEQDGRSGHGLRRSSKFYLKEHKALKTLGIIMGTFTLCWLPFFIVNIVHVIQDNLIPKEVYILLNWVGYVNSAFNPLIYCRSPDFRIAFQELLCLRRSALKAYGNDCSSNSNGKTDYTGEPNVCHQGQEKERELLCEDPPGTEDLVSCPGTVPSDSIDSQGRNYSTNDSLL
Chain of Voltage-dependent L-type calcium channel subunit alpha-1C (Q13936 whole entry): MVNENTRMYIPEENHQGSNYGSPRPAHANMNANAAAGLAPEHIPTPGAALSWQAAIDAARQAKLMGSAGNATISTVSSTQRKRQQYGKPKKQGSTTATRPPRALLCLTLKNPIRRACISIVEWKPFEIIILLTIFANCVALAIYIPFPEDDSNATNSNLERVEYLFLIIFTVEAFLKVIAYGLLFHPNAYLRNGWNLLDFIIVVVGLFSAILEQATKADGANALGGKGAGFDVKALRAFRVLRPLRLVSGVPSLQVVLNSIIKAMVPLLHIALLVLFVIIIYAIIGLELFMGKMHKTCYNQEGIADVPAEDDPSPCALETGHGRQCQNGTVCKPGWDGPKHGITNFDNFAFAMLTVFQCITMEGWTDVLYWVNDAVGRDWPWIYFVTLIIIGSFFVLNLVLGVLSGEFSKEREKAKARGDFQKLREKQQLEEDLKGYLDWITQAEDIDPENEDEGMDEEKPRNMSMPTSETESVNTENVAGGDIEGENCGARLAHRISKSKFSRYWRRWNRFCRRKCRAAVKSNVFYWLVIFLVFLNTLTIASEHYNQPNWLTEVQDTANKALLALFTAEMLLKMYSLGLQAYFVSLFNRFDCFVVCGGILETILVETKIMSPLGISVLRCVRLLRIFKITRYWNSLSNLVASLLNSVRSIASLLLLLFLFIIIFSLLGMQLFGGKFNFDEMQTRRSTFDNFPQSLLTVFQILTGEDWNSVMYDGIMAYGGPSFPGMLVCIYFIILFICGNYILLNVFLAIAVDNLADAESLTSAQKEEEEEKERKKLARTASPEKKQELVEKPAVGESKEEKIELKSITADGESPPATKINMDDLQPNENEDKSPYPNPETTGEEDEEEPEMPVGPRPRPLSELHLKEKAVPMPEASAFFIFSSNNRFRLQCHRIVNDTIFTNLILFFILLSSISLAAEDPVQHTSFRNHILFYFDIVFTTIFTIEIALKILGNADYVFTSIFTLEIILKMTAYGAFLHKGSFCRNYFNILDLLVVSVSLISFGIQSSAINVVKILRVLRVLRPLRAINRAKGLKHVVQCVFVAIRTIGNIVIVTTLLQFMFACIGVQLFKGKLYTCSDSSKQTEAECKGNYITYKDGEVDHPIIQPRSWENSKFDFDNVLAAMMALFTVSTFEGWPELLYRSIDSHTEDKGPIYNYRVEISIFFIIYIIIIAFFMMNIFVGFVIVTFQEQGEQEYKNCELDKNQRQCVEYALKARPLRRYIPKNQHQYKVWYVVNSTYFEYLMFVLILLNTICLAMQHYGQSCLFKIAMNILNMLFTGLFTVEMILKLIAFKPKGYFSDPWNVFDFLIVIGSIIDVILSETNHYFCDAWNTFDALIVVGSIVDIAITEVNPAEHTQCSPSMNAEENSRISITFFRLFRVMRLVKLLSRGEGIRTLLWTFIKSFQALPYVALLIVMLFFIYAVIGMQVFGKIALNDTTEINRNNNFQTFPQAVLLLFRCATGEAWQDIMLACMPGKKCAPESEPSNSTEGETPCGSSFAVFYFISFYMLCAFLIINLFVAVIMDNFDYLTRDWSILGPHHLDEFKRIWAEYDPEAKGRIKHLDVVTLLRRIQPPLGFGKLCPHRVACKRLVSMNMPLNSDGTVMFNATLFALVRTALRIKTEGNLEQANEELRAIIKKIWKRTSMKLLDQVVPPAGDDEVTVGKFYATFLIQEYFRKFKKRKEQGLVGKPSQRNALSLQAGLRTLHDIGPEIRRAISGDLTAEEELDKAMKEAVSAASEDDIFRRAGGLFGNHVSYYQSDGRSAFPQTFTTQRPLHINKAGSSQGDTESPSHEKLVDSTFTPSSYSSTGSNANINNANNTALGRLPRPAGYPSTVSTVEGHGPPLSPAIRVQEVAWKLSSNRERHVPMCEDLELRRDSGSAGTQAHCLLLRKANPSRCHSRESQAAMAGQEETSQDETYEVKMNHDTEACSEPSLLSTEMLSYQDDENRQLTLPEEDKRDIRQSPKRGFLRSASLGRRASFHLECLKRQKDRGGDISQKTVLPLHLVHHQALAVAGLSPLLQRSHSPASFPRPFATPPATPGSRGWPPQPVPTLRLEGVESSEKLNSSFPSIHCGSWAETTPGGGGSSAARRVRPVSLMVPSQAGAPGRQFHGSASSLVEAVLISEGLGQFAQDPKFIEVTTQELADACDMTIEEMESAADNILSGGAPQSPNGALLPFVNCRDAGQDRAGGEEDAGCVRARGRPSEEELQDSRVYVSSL

Q: For `CN1CCC[C@@H](OC(=O)[C@](O)(c2ccccc2)c2cccc(OCCCNC(=O)c3ccc(CNC[C@H](O)c4ccc(O)c5[nH]c(=O)ccc45)cc3)c2)C1`, which half-life [1] is on record?
A: Its half-life is 25 h.

Q: And the IC50 [2]?
A: The IC50 was 310 µM.

Q: What about the half-life at 2 h, 5 µM (in vitro [3]) of the same molecule?
A: Its half-life at 2 h, 5 µM is over 2.5 h.

Q: What about the IC50 [4] of the same molecule?
A: Its IC50 is 128 µM.

Q: And the IC50 (Trachea)?
A: The IC50 was 0.000126 µM.

Q: What about the IC50 [5] of the same molecule?
A: Its IC50 is 0.0001 µM.

Q: And the inhibition in vivo at 0.0003 µmol/kg (Cavia porcellus [6])?
A: Its inhibition in vivo at 0.0003 µmol/kg is 57%.

Q: What about the hepatocyte CLint at 1.5 h, 1 µM (in vitro [7]) of the same molecule?
A: The hepatocyte CLint at 1.5 h, 1 µM was 3 µL/min/1e6 cells.

Q: What about the inhibition in vivo at 0.0003 µmol/kg (Cavia porcellus [8]) of the same molecule?
A: The inhibition in vivo at 0.0003 µmol/kg was 89%.

Q: What about the Emax at 0.0003 µmol/kg (Cavia porcellus [9]) of the same molecule?
A: Its Emax at 0.0003 µmol/kg is 89%.

Q: What about the IC50 [10] of the same molecule?
A: Its IC50 is 314 µM.

Q: What about the half-life at 2 h, 5 µM (in vitro [11]) of the same molecule?
A: Its half-life at 2 h, 5 µM is 9 min.

Q: And the clearance at 1 h (in vivo [12])?
A: Its clearance at 1 h is 75 mL/min/kg.

Q: And the inhibition in vivo at 0.0003 µmol/kg (Cavia porcellus [13])?
A: Its inhibition in vivo at 0.0003 µmol/kg is 78%.

Q: What about the Emax at 0.0003 µmol/kg (Cavia porcellus [14]) of the same molecule?
A: Its Emax at 0.0003 µmol/kg is 89%.

Q: And the inhibition at 3.167 h, 1000 µM (in vivo [15])?
A: Its inhibition at 3.167 h, 1000 µM is 33%.

Q: What about the half-life at 2 h, 5 µM (in vitro [16]) of the same molecule?
A: The half-life at 2 h, 5 µM was 1.3 h.

Q: And the hepatocyte CLint at 1.5 h, 1 µM (in vitro [17])?
A: The hepatocyte CLint at 1.5 h, 1 µM was 12 µL/min/1e6 cells.

Q: What about the remaining at 1 h, 1 µM [18] of the same molecule?
A: The remaining at 1 h, 1 µM was 91.1%.

Q: What about the inhibition at 3.167 h, 3000 µM (in vivo [19]) of the same molecule?
A: Its inhibition at 3.167 h, 3000 µM is 43%.

Q: And the inhibition in vivo at 0.0003 µmol/kg (Cavia porcellus [20])?
A: Its inhibition in vivo at 0.0003 µmol/kg is 54%.

Q: What about the Vd at 1 h (in vivo [21]) of the same molecule?
A: The Vd at 1 h was 0.75 L/kg.

Q: And the inhibition in vivo at 0.0003 µmol/kg (Cavia porcellus [22])?
A: Its inhibition in vivo at 0.0003 µmol/kg is 89%.

Q: What about the Ki [23] of the same molecule?
A: The Ki was 0.0251 nM.

Q: What about the inhibition in vivo at 0.0003 µmol/kg (Cavia porcellus [24]) of the same molecule?
A: The inhibition in vivo at 0.0003 µmol/kg was 84%.

Q: What about the Emax at 0.0003 µmol/kg (Cavia porcellus [25]) of the same molecule?
A: The Emax at 0.0003 µmol/kg was 89%.

Q: With `C[N+]1(C)[C@@H]2C[C@@H](OC(=O)C(O)(c3cccs3)c3cccs3)C[C@H]1[C@@H]1O[C@@H]12` [TIOTROPIUM BROMIDE] as the molecule, how does the inhibition at 3.167 h, 300 µM (in vivo [26]) read?
A: The inhibition at 3.167 h, 300 µM was 77%.
